From patent US20190015423A1, “REGULATION OF GENE EXPRESSION BY MODULATING PRIMARY CILIA LENGTH” (THE TRUSTEES OF COLUMBIA UNIVERSITY IN THE CITY OF NEW YORK, priority 2016, published 2019)
Where a name gives a salt, the structure may show the parent alone.

System: MLO-Y4 osteocytes
Assay: High-throughput drug screening of primary cilia length and incidence
Type: cell-based
Conditions: 10 μM, 16 hours; for Average Length SD Away / Average Incidence SD Away: triplicate, normalized to vehicle control, standard deviation away from the population average
Experimental: MLO-Y4 osteocytes were maintained on collagen I-coated dishes in MEMα (Life_Technologies) supplemented with 5% fetal bovine serum (FBS), 5% calf serum (CS), and 1% penicillin/streptomycin (P/S) at 37° C. and 5% CO2. Osteocytes were then seeded onto 384-well collagen-coated plates for 72 hours before fixation. […] These libraries include Tocris, Sigma LOPAC, Selleck Chemical, Prestwick, and Spectrum commercially available compound libraries. All cell seeding and plate handling was performed with the Perkin Elmer cell:explorer workstation.
Cells were fixed in 4% paraformaldehyde and permeabilized with 0.1% Triton-X 100 (Sigma). 10% goat serum (vendor) was used for blocking. Cilia were stained using a monoclonal antibody against acetylated α-tubulin (1:20) from a C3B9 hybridoma cell line, and visualized with A F488 (1:1000, ThermoFisher). Nuclei were visualized with Hoechst. Cells were imaged using a GE INCell 2000 high-throughput imager at 40× magnification. 4 fields of view were taken per well.
Each pair of nuclei and cilia images was first analyzed individually, then the entire population was examined to evaluate each compound's effect on cilia length and incidence. A custom MATLAB script was developed to perform all image analysis. This script first utilizes an enhanced implementation of a watershed transform, which is a segmentation tool which enables detection of similarly shaped overlapping particles in noisy images by the procedural whittling down of pixels found close to the edge of such particles. The augmentation of the algorithm incorporates thresholding for noise removal based on signal intensity and object size, nuclei dilation to exclude non-cellular artifacts, as well as skeletonization of cilia to quantify length. The results of the analysis are number of nuclei, number of cilia, and average cilia length in each image.
Compounds were selected based on deviation from the population mean. Each well was normalized to vehicle control images on each plate, allowing the establishment of a normalized population mean. Hits were chosen based on compounds whose triplicate mean was furthest (based on standard deviation away) from the population mean. […] Compounds were classified based on mechanism of action.
To identify compounds that modulate primary cilia formation a high-throughput platform was developed to automate cell culture, staining, imaging, and analysis, as shown in schematic form in FIG. 18. […] Cells were cultured on 384-well plates, and treated with small molecules with known biologic activity, enabling classification of mechanisms of action. Drug treatment was applied for 16 hours at 10 μM concentration, performed in triplicate, before fixation and immunostaining of primary cilia. Cells were then imaged using the GE INCell 2000 High Content Analyzer, capturing 4 fields of view per well at 40× magnification. Additionally, each plate contains 8 wells of DMSO vehicle control.
A MATLAB script was developed to detect and analyze changes in ciliogenesis. […] A representative exemplary image (FIG. 19A) is cropped to better display features, scale bar represents 30 μm. A custom MATLAB script was used to identify nuclei and cilia for analysis (FIG. 19B). […] Objects are further filtered based on size and signal intensity.
Cilia length and incidence for each field of view were normalized to vehicle control on that individual plate. This allowed development of a normalized population average and standard deviation. […] To control for toxic effects only small molecules with at least 40% viability, based on number of nuclei versus control, were selected as hits. Furthermore, compounds repeated between multiple libraries eliciting the same effect on cilia length or incidence were excluded, such that only one of the repeated compounds was selected as a hit.

Compound	Average Length SD Away [SD]	Average Incidence SD Away [SD]	classification as hit increasing cilia length in the screen (hit = 1.5 standard deviation above population average, at least 40% viability)
CC(=O)O[C@@H]1C[C@H]2C(C)(C)C(=O)C=C[C@]2(C)[C@H]2CC[C@]3(C)C(=CC(=O)O[C@H]3c3ccoc3)[C@@]21C [DEOXYGEDUNIN]	2.161		
CCCC(=O)OCOC(=O)C1=C(C)NC(C)=C(C(=O)OC)C1c1cccc(Cl)c1Cl (stereo not drawn) [Cleviprex (Clevidipine), Clevidipine]		1.837	
CN1[C@@H]2CC[C@H]1C[C@@H](OC(=O)C(CO)c1ccccc1)C2 (stereo partly drawn) [Atropine]		1.694	
O=C1NC(=O)c2c1c1c3ccccc3[nH]c1c1[nH]c3ccccc3c21 [Arcyriaflavin A]		1.892	
C[C@]12CC[C@@H]3c4ccc(O)cc4CC[C@H]3[C@@H]1CC[C@@H]2OC(=O)CCC1CCCC1 [ESTRADIOL CYPIONATE]	1.56		
Cc1nn(-c2ccccc2)c(C)c1/C=N/N1CCN(Cc2ccccc2)CC1 [SANT-1]	1.811		
COC(=O)C1=C(C)NC(C)=C(C(=O)OC2CCCN(Cc3ccccc3)C2)C1c1cccc([N+](=O)[O-])c1 (stereo not drawn) [Benidipine hydrochloride]		1.811	
CCOC(=O)C1=C(C)NC(C)=C(C(=O)OC)C1c1cccc([N+](=O)[O-])c1 (stereo not drawn) [Nitrendipine]		1.542	
CC[n+]1c(-c2ccccc2)c2cc(N)ccc2c2ccc(N)cc21 [HOMIDIUM BROMIDE]	1.694		
CCOc1ccc2nc3cc(N)ccc3c(N)c2c1 [Ethacridine lactate monohydrate]	2.114		
Nc1nc(Cl)nc2c1ncn2[C@H]1C[C@H](O)[C@@H](CO)O1 [Cladribine]		1.604	
Nc1nc2[nH]cc(CCc3ccc(C(=O)N[C@@H](CCC(=O)O)C(=O)O)cc3)c2c(=O)[nH]1 [Pemetrexed]	2.765	2.083	
CC(=O)O[C@H]1CC[C@@]2(C)[C@@H](CC[C@@H]3[C@@H]2CC(=O)[C@]2(C)[C@@H]4[C@H](C[C@@H]32)O[C@]2(CC[C@@H](C)CO2)[C@H]4C)C1 [HECOGENIN ACETATE]	2.21		
NC(=O)c1ccc(N)nc1 [6-AMINONICOTINAMIDE]	2.008		
CNC(=O)c1cc(Oc2ccc(NC(=O)Nc3ccc(Cl)c(C(F)(F)F)c3)cc2)ccn1 [Sorafenib (Nexavar), Sorafenib]	1.5	1.678	
Cc1nccn1CC1CCc2c(c3ccccc3n2C)C1=O (stereo not drawn) [Ondansetron (Zofran), Ondansetron]		1.506	
N#C/C(=C\c1ccc(O)c(O)c1)C(=O)Nc1ccccc1 [AG 494]	1.575		
COc1cc(C(C)=O)ccc1OCCCN1CCC(c2noc3cc(F)ccc23)CC1 [Iloperidone (Fanapt), Iloperidone]		1.775	
Cc1ncc([N+](=O)[O-])n1CCO [Metronidazole (Flagyl), Metronidazole]		2.092	
C[C@@H]1CC(=O)NN=C1c1ccc(NN=C(C#N)C#N)cc1 [Levosimendan]		1.52	
N#CC(c1ccc(Cl)cc1)c1c(Cl)cc(-n2ncc(=O)[nH]c2=O)cc1Cl (stereo not drawn) [Diclazuril]		1.668	
CN1C(=O)COc2c(C(=O)NC3CN4CCC3CC4)cc(Cl)cc21 (stereo not drawn) [Azasetron HCl]		1.653	
O=c1[nH]c(=O)n([C@H]2C[C@H](O)[C@@H](CO)O2)cc1C(F)(F)F [Trifluridine (Viroptic), Trifluridine]	1.773	2.117	
CNCCc1ccccn1 [BETAHISTINE HYDROCHLORIDE]	1.532		
CC(C)NCC(O)c1ccc(O)c(O)c1 (stereo not drawn) [Isoprenaline hydrochloride]		1.623	

Compound	Average Length SD Away [SD]	Average Incidence SD Away [SD]	classification as hit increasing cilia length in the screen (hit = 1.5 standard deviation above population average, at least 40% viability)
O=C(NCCO[N+](=O)[O-])c1cccnc1 [Nicorandil (Ikorel), Nicorandil]		1.556	
C=C[C@H]1C[N@@]2CC[C@H]1C[C@@H]2[C@@H](O)c1ccnc2ccc(OC)cc12 [QUINIDINE GLUCONATE]	1.825		
C=C[C@H]1C[N@@]2CC[C@H]1C[C@H]2[C@H](O)c1ccnc2ccc(OC)cc12 [QUININE SULFATE]	1.802		
CC(C)c1nc(N(C)S(C)(=O)=O)nc(-c2ccc(F)cc2)c1/C=C/[C@@H](O)C[C@@H](O)CC(=O)O [Rosuvastatin calcium (Crestor), Rosuvastatin calcium]		1.644	
CCOC(=O)N1CCC(=C2c3ccc(Cl)cc3CCc3cccnc32)CC1 [Loratidine]	2.261		
c1ccc(-c2ccc(C(c3ccccc3)n3ccnc3)cc2)cc1 (stereo not drawn) [Bifonazole]		1.664	
CCCCN1CCCCC1C(=O)Nc1c(C)cccc1C (stereo not drawn) [Bupivacaine hydrochloride (Marcain), Bupivacaine hydrochloride]		1.827	
COC(=O)Nc1nc2ccc([S+]([O-])c3ccccc3)cc2[nH]1 (stereo not drawn) [Oxfendazole]	1.574	2.268	
CN(Cc1cnc2nc(N)nc(N)c2n1)c1ccc(C(=O)N[C@@H](CCC(=O)O)C(=O)O)cc1 [Methotrexate]	3.097	2.424	listed as hits
Cc1cccc(N(C)C(=S)Oc2ccc3ccccc3c2)c1 [Tolnaftate]		1.5099	
NC(=O)NO [Hydroxyurea (Cytodrox), Hydroxyurea]		1.988	
CCc1nc(N)nc(N)c1-c1ccc(Cl)cc1 [PYRIMETHAMINE]	3.194	1.762	
CC1=NN(c2ccccc2)C(=O)C1 [Edaravone (MCI-186), Edaravone]		1.537	
CC1(C)Cc2c(-c3ccccc3)c(-c3ccc(Cl)cc3)c(CC(=O)O)n2C1 [Licofelone]		1.936	
COCCc1ccc(OCC(O)CNC(C)C)cc1 (stereo not drawn) [Metoprolol tartrate]		1.601	
OCCN(CCO)c1nc(N2CCCCC2)c2nc(N(CCO)CCO)nc(N3CCCCC3)c2n1 [Dipyridamole (Persantine), Dipyridamole]		2.055	
CCc1c2c(nc3ccc(OC(=O)N4CCC(N5CCCCC5)CC4)cc13)-c1cc3c(c(=O)n1C2)COC(=O)[C@]3(O)CC [Irinotecan]	1.658	1.681	
COc1ccccc1OCC(O)CN1CCN(CC(=O)Nc2c(C)cccc2C)CC1 (stereo not drawn) [Ranolazine (Ranexa), Ranolazine]		1.565	
COc1cc2c(cc1OC)[C@@H]1C(=O)c3ccc4c(c3O[C@@H]1CO2)C=CC(C)(C)O4 [DEGUELIN(−)]	2.48		
NC[C@H]1CC[C@H](C(=O)O)CC1 [Tranexamic acid (Transamin), Tranexamic acid]		1.582	
N=C1C=CC(=C(c2ccc(N)cc2)c2ccc(N)cc2)C=C1 [PARAROSANILINE PAMOATE]	2.389		
O=C(CCCCCCC(=O)Nc1ccccc1)NO [Vorinostat]	3.283		
O=c1c(-c2ccc(O)cc2)coc2cc(O)cc(O)c12 [Genistein]		1.524	
Ro 19-4605	1.584		
